Patent publication US9718808B2, “Inhibitors of the renal outer medullary potassium channel” (Merck Sharp & Dohme Corp., priority 2014, dated 2017)

Each molecule was assayed against ROMK (Kir1.1) channel (Homo sapiens (Human), UniProt P48048) (assay: Thallium Flux Assay).
Type: cell-based
Experimental: A Thallium Flux Assay was performed on each of the final product compounds of the Examples. This assay has been described previously; see, e.g., PCT Published Application WO 2013/062900.

Sequence of ROMK (Kir1.1) channel (P48048 whole entry): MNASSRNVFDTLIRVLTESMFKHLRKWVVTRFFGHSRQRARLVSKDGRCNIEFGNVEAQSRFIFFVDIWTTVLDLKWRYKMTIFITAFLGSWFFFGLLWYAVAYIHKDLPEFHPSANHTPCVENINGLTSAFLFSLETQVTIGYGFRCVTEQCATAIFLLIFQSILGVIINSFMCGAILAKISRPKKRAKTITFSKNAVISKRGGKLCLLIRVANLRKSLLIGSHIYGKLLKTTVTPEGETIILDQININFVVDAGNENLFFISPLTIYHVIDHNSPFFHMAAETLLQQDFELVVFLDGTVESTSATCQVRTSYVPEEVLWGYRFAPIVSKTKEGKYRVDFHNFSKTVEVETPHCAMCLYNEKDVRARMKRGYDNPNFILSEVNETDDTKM

| Structure (SMILES) | IC50 [nM] |
| --- | --- |
| C[C@@H]1C[C@]2(CC[C@@H](NCc3ccc(-n4cnnn4)nc3)CC2)C(=O)N1C1=CC(=O)OC1 [Example 23, (3R,5r,8R)-3-methyl-2-(5-oxo-2,5-dihydrofuran-3-yl)-8-({[6-(1H-tetrazol-1-yl)pyridin-3-yl]methyl}amino)-2-azaspiro[4.5]decan-1-one] | 720 |
| CC1=C(N2CC[C@]3(CC[C@@H](NCc4ccc5c(c4F)Cn4nnnc4-5)CC3)C2=O)COC1=O [Example 59, (5r,8r)-8-(((6-fluoro-5H-tetrazolo[5,1-a]isoindol-7-yl)methyl)amino)-2-(4-methyl-5-oxo-2,5-dihydrofuran-3-yl)-2-azaspiro[4.5]decan-1-one] | 6 |
| C[C@H]1C[C@]2(CC[C@H](NCc3cnc(-n4cnnn4)cn3)CC2)C(=O)N1C1=CC(=O)OC1 [Example 28, (3S,5s,8R)-3-methyl-2-(5-oxo-2,5-dihydrofuran-3-yl)-8-({[5-(1H-tetrazol-1-yl)pyrazin-2-yl]methyl}amino)-2-azaspiro[4.5]decan-1-one] | 250 |
| CC1=C(N2CC[C@]3(CC[C@H](NCc4ccc(-n5cnnn5)cn4)CC3)C2=O)COC1=O [Example 7A, (5s,8s)-2-(4-methyl-5-oxo-2,5-dihydrofuran-3-yl)-8-({[5-(1H-tetrazol-1-yl)pyridin-2-yl]methyl}amino)-2-azaspiro[4.5]decan-1-one] | 24 |
| CC1=C(N2CC[C@]3(CC[C@H](NCc4ccc5c(c4C)COC5=O)CC3)C2=O)COC1=O [Example 4, (5s,8s)-8-(((4-methyl-1-oxo-1,3-dihydroisobenzofuran-5-yl)methyl)amino)-2-(4-methyl-5-oxo-2,5-dihydrofuran-3-yl)-2-azaspiro[4.5]decan-1-one] | 350 |
| CC1=C(N2CC[C@]3(CC[C@H](N(C)Cc4ccc(-n5cnnn5)nc4)CC3)C2=O)COC1=O [Example 83] | 28 |
| C[C@H]1C[C@]2(CC[C@H](NCc3ccc(-n4cnnn4)nc3)CC2)C(=O)N1C1=CC(=O)OC1 [Example 22, (3S,5s,8R)-3-methyl-2-(5-oxo-2,5-dihydrofuran-3-yl)-8-({[6-(1H-tetrazol-1-yl)pyridin-3-yl]methyl}amino)-2-azaspiro[4.5]decan-1-one] | 130 |
| CC1=C(N2CC[C@]3(CC[C@@H](N[C@H](C)c4ccc5c(c4)Cn4nnnc4-5)CC3)C2=O)COC1=O [Example 30, (5R,8r)-2-(4-methyl-5-oxo-2,5-dihydrofuran-3-yl)-8-{[(1R)-1-(5H-tetrazolo[5,1-a]isoindol-7-yl)ethyl]amino}-2-azaspiro[4.5]decan-1-one] | 150 |
| CC1=C(N2CC[C@]3(CC[C@@H](NCc4ccc5c(c4)CCc4nnnn4-5)CC3)C2=O)COC1=O [Example 51, (5r,8r)-8-(((4,5-dihydrotetrazolo[1,5-a]quinolin-7-yl)methyl)amino)-2-(4-methyl-5-oxo-2,5-dihydrofuran-3-yl)-2-azaspiro[4.5]decan-1-one] | 4.3 |
| CC1=C(N2CC[C@]3(CC[C@@H](NCc4ccc(-n5ncnn5)cc4)CC3)C2=O)COC1=O [Example 41, (5r,8r)-2-(4-methyl-5-oxo-2,5-dihydrofuran-3-yl)-8-{[4-(2H-tetrazol-2-yl)benzyl]amino}-2-azaspiro[4.5]decan-1-one] | 3.3 |
| CC1=C(N2CC[C@]3(CC[C@@H](N(C)[C@H](CO)c4ccc(-n5cnnn5)nc4)CC3)C2=O)COC1=O [Example 86] | 480 |
| CC1=C(N2CC[C@]3(CC[C@H](N[C@H](C)c4ccc5c(c4)CCc4nnnn4-5)CC3)C2=O)COC1=O [Example 17, (5S,8s)-8-{[(1R)-1-(4,5-dihydrotetrazolo[1,5-a]quinolin-7-yl)ethyl]amino}-2-(4-methyl-5-oxo-2,5-dihydrofuran-3-yl)-2-azaspiro[4.5]decan-1-one] | 340 |
| C[C@H]1C[C@]2(CC[C@@H](NCc3ccc4c(c3)Cn3nnnc3-4)CC2)C(=O)N1C1=CC(=O)OC1 [Example 63, (3S,5r,8S)-8-(((5H-tetrazolo[5,1-a]isoindol-7-yl)methyl)amino)-3-methyl-2-(5-oxo-2,5-dihydrofuran-3-yl)-2-azaspiro[4.5]decan-1-one] | 23 |
| CC1=C(N2CC[C@]3(CC[C@@H](N[C@H](C)c4cnc(-n5cnnn5)cn4)CC3)C2=O)COC1=O [Example 24, (5R,8r)-2-(4-methyl-5-oxo-2,5-dihydrofuran-3-yl)-8-({(1R)-1-[5-(1H-tetrazol-1-yl)pyrazin-2-yl]ethyl}amino)-2-azaspiro[4.5]decan-1-one] | 120 |
| CC1=C(N2CC[C@]3(CC[C@@H](NCc4ccc(-n5cnnn5)nc4)CC3)C2=O)COC1=O [Example 5, (5r,8r)-2-(4-methyl-5-oxo-2,5-dihydrofuran-3-yl)-8-({[6-(1H-tetrazol-1-yl)pyridin-3-yl]methyl}amino)-2-azaspiro[4.5]decan-1-one] | 16 |
| C[C@@H]1C[C@]2(CC[C@H](NCc3cnc(-n4cnnn4)cn3)CC2)C(=O)N1C1=CC(=O)OC1 [Example 26, (3R,5s,8S)-3-methyl-2-(5-oxo-2,5-dihydrofuran-3-yl)-8-({[5-(1H-tetrazol-1-yl)pyrazin-2-yl]methyl}amino)-2-azaspiro[4.5]decan-1-one] | 190 |
| CC1=C(N2CC[C@]3(CC[C@@](C)(NCc4ccc(-n5cnnn5)nn4)CC3)C2=O)COC1=O [Example 48, (5r,8r)-8-methyl-2-(4-methyl-5-oxo-2,5-dihydrofuran-3-yl)-8-({[6-(1H-tetrazol-1-yl)pyridazin-3-yl]methyl}amino)-2-azaspiro[4.5]decan-1-one] | 7.7 |
| CC1=C(N2CC[C@]3(CC[C@@H](N[C@H](C)c4ccc(-n5cnnn5)nc4)CC3)C2=O)COC1=O [Example 10, (5R,8r)-8-(((R)-1-(6-(1H-tetrazol-1-yl)pyridin-3-yl)ethyl)amino)-2-(4-methyl-5-oxo-2,5-dihydrofuran-3-yl)-2-azaspiro[4.5]decan-1-one] | 18 |

Further lines, results first:

| IC50 [nM] | Structure (SMILES) |
| --- | --- |
| 29 | CC1=C(N2CC[C@]3(CC[C@@H](N(C)Cc4cnc(-n5cnnn5)cn4)CC3)C2=O)COC1=O [Example 92] |
| 21 | CC1=C(N2CC[C@]3(CC[C@@H](N(C)Cc4ccc5c(ccc6nnnn65)c4)CC3)C2=O)COC1=O [Example 96] |
| 8.8 | CC1=C(N2CC[C@]3(CC[C@@H](N(C)Cc4ccc5c(c4)Cn4nnnc4-5)CC3)C2=O)COC1=O [Example 106] |
| 3.4 | CC1=C(N2CC[C@]3(CC[C@@H](N(C)Cc4ccc(-n5ncnn5)cc4)CC3)C2=O)COC1=O [Example 109] |
| 120 | CC1=C(N2CC[C@]3(CC[C@H](N(CC(=O)N(C)C)Cc4ccc(-n5cnnn5)nc4)CC3)C2=O)COC1=O [Example 139] |
| 150 | CC1=C(N2CC[C@]3(CC[C@H](N(C)CCc4ccc5c(c4)COC5=O)CC3)C2=O)COC1=O [Example 105] |
| 77 | CC1=C(N2CC[C@]3(CC[C@H](N(C)C[C@H](O)c4ccc5c(c4C)COC5=O)CC3)C2=O)COC1=O [Example 123] |
| 22 | CC1=C(N2CC[C@]3(CC[C@@H](N(C)Cc4nnc(-n5cnnn5)cc4C)CC3)C2=O)COC1=O [Example 107] |
| 490 | CCN(Cc1ccc2c(c1C)COC2=O)C1CCC2(CC1)CCN(C1=C(C)C(=O)OC1)C2=O (stereo not drawn) [Example 142] |
